Source: publication PMC6155387, “Alkoxy and Enediyne Derivatives Containing 1,4-Benzoquinone Subunits—Synthesis and Antitumor Activity” (Molecules : A Journal of Synthetic Chemistry and Natural …, 2017)
Read-outs that look alike come from different tables or passages of the source.

Legend:
[1] = system: C-32; settings: melanoma C-32, read-out: IC50 ± SD C-32, cited from earlier work
[2] = system: HFF-1; settings: normal fibroblasts HFF-1, cited from earlier work; for IC50 ± SD HFF-1: Neg: negative in the concentration used, footnote a; for IC50: footnote b, read-out: IC50 ± SD HFF-1
[3] = system: SNB-19; settings: glioblastoma SNB-19, read-out: IC50 ± SD SNB-19, cited from earlier work
[4] = system: MDA-MB-231; settings: breast cancer MDA-MB-231, read-out: IC50 ± SD MDA-MB-231, cited from earlier work
[5] = system: MDA-MB-231; assay: antiproliferative activity (WST-1), breast cancer MDA-MB-231; format: cell-based, human; settings: for SI (IC50 HFF-1/IC50 cancer line) MDA-MB-231: selectivity index, HFF-1 vs MDA-MB-231
Protocol: (§1) Biological activity of the tested compounds was assessed in vitro using cultured cell lines: melanoma C-32 (ATCC, Rockville, MD, USA), glioblastoma SNB-19 (DSMZ, Braunschweig, Germany), breast cancer MDA-MB-231 (ATCC, Rockville, MD, USA), and normal human fibroblasts derived from foreskin HFF-1 (ATCC, Rockville, MD, USA). Cell cultures were maintained using DMEM (Lonza, Basel, Switzerland) supplemented with 10% fetal bovine serum (FBS) (Biological Industries Cromwell, CT, USA) and a mixture of penicillin (10,000 U/mL) and streptomycin (10 mg/mL) (Lonza, Basel, Switzerland).
(§2) Cells were cultured using 96-well plates (Nunc Thermo Fisher Scientific, Waltham, MA, USA). Cells were seeded (5 × 10^3 cells/well) and incubated for 24 h in a standard incubator (37 °C, 5% CO2, relative humidity 95%). Subsequently, the medium was replaced with a fresh aliquot containing an examined compound (0.01; 0.05; 0.1; 0.5; 1; 5; 10; 50; 100 µg/mL), and cells were further incubated for another 72 h. Upon the conclusion of incubation, a CVDE test (Aniara, West Chester, OH, USA) using crystal violet was performed to assess the relative number of cells in the culture. A WST-1 test (Roche) was performed to examine the metabolic activity of cells and test for the presence of LDH in the medium (Roche Diagnostics GmbH, Mannheim, Germany), allowing for the assessment of the relative number of dead cells (i.e., cytotoxicity of the examined compound). UVM340 microplate readers (BIOGENET, Józefów, Poland) were used to read absorbance values.
(§3) WST-1 colorimetric assay for cell proliferation (Roche Diagnostics GmbH, Mannheim, Germany, reagent kit cat. 11644807001) is based on the viable cells’ ability to cleave the bright red-colored stable tetrazolium salt WST-1 to dark red soluble formazan. This bioreduction occurs under the influence of mitochondrial dehydrogenases (depends mostly on production of NAD(P)H in viable cells). The amount of formazan dye formed correlates directly with the number of metabolically active cells in the culture and is measured by absorbance (λ = 450 nm) following 1 h incubation of cells with the reagent.

[6] = system: C-32; assay: antiproliferative activity (WST-1), melanoma C-32; format: cell-based, human; settings: for SI (IC50 HFF-1/IC50 cancer line) C-32: selectivity index, HFF-1 vs C-32
Protocol: as §1, §2, §3

[7] = system: SNB-19; assay: antiproliferative activity (WST-1), glioblastoma SNB-19; format: cell-based, human; settings: for SI (IC50 HFF-1/IC50 cancer line) SNB-19: selectivity index, HFF-1 vs SNB-19
Protocol: as §1, §2, §3

[8] = system: HFF-1; assay: antiproliferative activity (WST-1), normal fibroblasts HFF-1; format: cell-based, human; settings: normal fibroblasts HFF-1, 72 h, Neg: negative in the concentration used, read-out: IC50 ± SD HFF-1
Protocol: as §1, §2, §3

SMILES | IC50 ([1]; footnote a) | IC50 ± SD HFF-1 [2] | IC50 ([3]; footnote a) | IC50 ([4]; footnote a) | SI (IC50 HFF-1/IC50 cancer line) C-32 [6] | SI (IC50 HFF-1/IC50 cancer line) SNB-19 [7] | other results
CCCOC1=C(Cl)C(=O)c2cccnc2C1=O [Compound 7] | 0.2 ± 0.1 µM | Neg | 0.4 ± 0.1 µM | 22.4 ± 2.7 µM | – | – | –
C=CCOC1=C(Cl)C(=O)c2cccnc2C1=O [Compound 8] | 0.28 ± 0.1 µM | Neg | 0.3 ± 0.1 µM | 17.2 ± 2.8 µM | – | – | –
C#CCOC1=C(Cl)C(=O)c2cccnc2C1=O [Compound 9] | – | – | – | – | 10.31 | 0.16 | SI (IC50 HFF-1/IC50 cancer line) MDA-MB-231 [5]: 0.15; IC50 ([1]; footnote b): 0.32 ± 0.1 µM; IC50 [2]: 3.3 ± 0.3 µM; IC50 ([3]; footnote b): 20.4 ± 0.2 µM; IC50 ([4]; footnote b): 21.4 ± 3.4 µM
CCCOC1=C(OCCC)C(=O)c2ncccc2C1=O [Compound 16] | 1.1 ± 0.1 µM | Neg | 0.7 ± 0.02 µM | 3 ± 0.3 µM | – | – | –
C=CCOC1=C(OCC=C)C(=O)c2ncccc2C1=O [Compound 17] | 1.5 ± 0.1 µM | Neg | 0.2 ± 0.1 µM | 12.6 ± 2.7 µM | – | – | –
C#CCOC1=C(OCC#C)C(=O)c2ncccc2C1=O [Compound 18] | – | – | – | – | 50.40 | 0.58 | SI (IC50 HFF-1/IC50 cancer line) MDA-MB-231 [5]: 7.00; IC50 ([1]; footnote b): 0.3 ± 0.1 µM; IC50 [2]: 12.6 ± 0.9 µM; IC50 ([3]; footnote b): 21.7 ± 1.1 µM; IC50 ([4]; footnote b): 1.8 ± 0.1 µM
N.N.[Cl][Pt][Cl] [cisplatin, reference compound] | – | – | – | – | 0.55 | 0.48 | IC50 ([5]; breast cancer MDA-MB-231, 72 h, WST-1, Neg: negative in the concentration used, read-out: IC50 ± SD MDA-MB-231): 25.5 ± 0.2 µM; IC50 ([6]; melanoma C-32, 72 h, WST-1, Neg: negative in the concentration used, read-out: IC50 ± SD C-32): 16.4 ± 1.2 µM; IC50 ([7]; glioblastoma SNB-19, 72 h, WST-1, Neg: negative in the concentration used, read-out: IC50 ± SD SNB-19): 18.9 ± 0.4 µM; IC50 [8]: 9.1 ± 1.8 µM
